Measured values: PubChem BioAssay (NCI)
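The compound was tested at five concentrations on cells cultured in 96-well plates, with a 48-hour exposure period. Abbreviation: GI50, concentration required for 50% inhibition of growth. TGI: concentration producing complete growth inhibition.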

Tests used:
Assay in all cases: inhibition of tumour cell growth, NCI panel, 48 h
T-47D breast = tested on: T-47D breast
HCC-2998 colon = tested on: HCC-2998 colon
SNB-19 CNS = tested on: SNB-19 CNS
HL-60(TB) leukemia = tested on: HL-60(TB) leukemia
KM12 colon = tested on: KM12 colon
U251 CNS = tested on: U251 CNS
OVCAR-4 ovarian = tested on: OVCAR-4 ovarian
TK-10 renal = tested on: TK-10 renal

## Cc1ccc(NC(=O)C(=O)CC(=O)c2sc(Nc3c(C)cccc3C)nc2C)cc1C
T-47D breast
  TGI: > 100 µM
HCC-2998 colon
  TGI: > 100 µM
SNB-19 CNS
  TGI: > 100 µM
HL-60(TB) leukemia
  TGI: > 100 µM
KM12 colon
  TGI: > 100 µM
U251 CNS
  TGI: > 100 µM
OVCAR-4 ovarian
  TGI: > 100 µM
TK-10 renal
  TGI: > 100 µM

## COc1cc2cc(Oc3ccc(NC(=O)Nc4ccc(Cl)c(Cl)c4)cc3)c(C)nc2cc1OC
T-47D breast
  GI50: 2700 nM
  TGI: 10.1 µM
HCC-2998 colon
  GI50: 5.54 µM
  TGI: > 100 µM
SNB-19 CNS
  GI50: 4.26 µM
  TGI: 24 µM
HL-60(TB) leukemia
  GI50: 2760 nM
  TGI: 6.75 µM
KM12 colon
  GI50: 3220 nM
  TGI: 13.4 µM
U251 CNS
  GI50: 2.19 µM
  TGI: 7.26 µM
OVCAR-4 ovarian
  GI50: 2670 nM
  TGI: 8.3 µM
TK-10 renal
  GI50: 3460 nM
  TGI: 9.18 µM

## NC(=S)c1c(N)n(C2OC(CO)C(O)C2O)c2ncnc(N)c12 (configuration not stated)
T-47D breast
  GI50: 238 nM
  TGI: 1.17 µM
HCC-2998 colon
  GI50: 0.204 µM
  TGI: 0.801 µM
SNB-19 CNS
  GI50: 0.962 µM
  TGI: > 100 µM
HL-60(TB) leukemia
  GI50: 135 nM
  TGI: 0.407 µM
KM12 colon
  GI50: 258 nM
  TGI: 9.61 µM
U251 CNS
  GI50: 0.496 µM
  TGI: > 100 µM
OVCAR-4 ovarian
  GI50: 264 nM
  TGI: > 100 µM
TK-10 renal
  GI50: 297 nM
  TGI: 3.56 µM

## CC(=O)c1c(C)[nH]c(-c2nc3ccc(N4CCN(C)CC4)cc3[nH]2)c1-c1ccccc1
T-47D breast
  GI50: 703 nM
  TGI: 36.1 µM
HCC-2998 colon
  GI50: 1.54 µM
  TGI: 12.8 µM
SNB-19 CNS
  GI50: 3.03 µM
  TGI: > 100 µM
HL-60(TB) leukemia
  GI50: 261 nM
  TGI: 12.7 µM
KM12 colon
  GI50: 1840 nM
  TGI: 32.6 µM
U251 CNS
  GI50: 3.53 µM
  TGI: 72.6 µM
OVCAR-4 ovarian
  GI50: 2550 nM
  TGI: 43.2 µM
TK-10 renal
  GI50: 604 nM
  TGI: 27.2 µM

## C=C1C(=O)OC2/C=C(/C)C(OC(C)=O)C/C=C(\C)C(OC(=O)C3(C)OC3C)C(O)C12 (configuration not stated)
T-47D breast
  TGI: > 100 µM
HCC-2998 colon
  TGI: > 100 µM
SNB-19 CNS
  TGI: > 100 µM
HL-60(TB) leukemia
  TGI: > 100 µM
KM12 colon
  TGI: > 100 µM
U251 CNS
  TGI: > 100 µM
OVCAR-4 ovarian
  TGI: > 100 µM
TK-10 renal
  TGI: > 100 µM

## CN1C(=O)C2(c3ccccc31)N(c1ccc(Cl)cc1)C(=O)C2(c1ccccc1)c1ccccc1 (configuration not stated)
T-47D breast
  GI50: 6290 nM
  TGI: > 100 µM
HCC-2998 colon
  GI50: 66 µM
  TGI: > 100 µM
SNB-19 CNS
  GI50: 22.4 µM
  TGI: > 100 µM
HL-60(TB) leukemia
  GI50: 3420 nM
  TGI: 16.5 µM
KM12 colon
  GI50: > 100000 nM
  TGI: > 100 µM
U251 CNS
  GI50: 45.5 µM
  TGI: > 100 µM
OVCAR-4 ovarian
  GI50: 5100 nM
  TGI: > 100 µM
TK-10 renal
  GI50: > 100000 nM
  TGI: > 100 µM

## N#CC1c2ccccc2C=CN1C(=O)N(c1ccccc1)c1ccccc1 (configuration not stated)
T-47D breast
  GI50: 1870 nM
  TGI: 4.45 µM
HCC-2998 colon
  GI50: 11.1 µM
  TGI: 23.9 µM
SNB-19 CNS
  GI50: 13.8 µM
  TGI: 26.8 µM
HL-60(TB) leukemia
  GI50: 2110 nM
  TGI: 6.24 µM
KM12 colon
  GI50: 6380 nM
  TGI: 19.3 µM
U251 CNS
  GI50: 6.59 µM
  TGI: 19.3 µM
OVCAR-4 ovarian
  GI50: 2990 nM
  TGI: 8.29 µM
TK-10 renal
  GI50: 1890 nM
  TGI: 3.58 µM

## Cn1cc(C2=C(c3cn(CCCCCSC(=N)N)c4ccccc34)C(=O)NC2=O)c2ccccc21
T-47D breast
  GI50: 3460 nM
  TGI: 9.63 µM
HCC-2998 colon
  GI50: 3.56 µM
  TGI: 7.19 µM
SNB-19 CNS
  GI50: 3.52 µM
  TGI: 6.82 µM
HL-60(TB) leukemia
  GI50: 3620 nM
  TGI: 7.85 µM
KM12 colon
  GI50: 2080 nM
  TGI: 5.41 µM
U251 CNS
  GI50: 2.5 µM
  TGI: 5.65 µM
OVCAR-4 ovarian
  GI50: 3160 nM
  TGI: 7.32 µM
TK-10 renal
  GI50: 2660 nM
  TGI: 5.71 µM
